Measured values published in patent US20040092548A1, “OPHTHALMIC TREATMENT” (priority 1995, published 2004).
Structures can show the parent of a compound that is named as a salt.

Assays:
[1] = test system: white New Zealand rabbits; experiment: Mydriatic response (pupil dilation, RRmax) after ocular dosing of ephedrine hydrochloride; assay type: in vivo; conditions: 5 μl of 5% solution (250 μg) as droplet stream compared with 5 μl 5% and 25 μl 1% instillates (250 μg each); rabbit
Method: Six white New Zealand rabbits were administered with the following dosage regimen:
I→25 μl of 1% aqueous ephedrine hydrochloride solution (250 μg) via pipette (instillate)
II→5 μl of 5% aqueous ephedrine hydrochloride solution (250 μg) via pipette (instillate)
III→5 μl of 5% aqueous ephedrine hydrochloride solution (250 μg) in a jet/stream of droplets of diameter in the range 200 to 400 μm.
Pupil diameter measurements were determined from photographs acquired using a Pentax ME super 35 mm camera fitted with a SMC Pentax 50 mm lens and a 2x converter. An aperture setting of 12, and a shutter speed of 1/15 was employed with a film speed of ISO 400 (Kodak Gold 400). The camera was held stationary on a tripod and positioned approximately 30-40 cm from the rabbits eye. Prior to each dosing period the animals were acclimatised to experimental conditions (constant light intensity, minimal distractions) for 20 min. The rabbits were placed in restraining boxes and settled before photographs and baseline pupil diameters were determined 5 min prior to dosing.
Pupillary diameters were determined from the developed colour prints (6×4) using an electronic micrometer (Digimatic Caliper, Mitutoyo Corp., Japan). […] The maximum response ratio (RRmax) for pupil dilation was then calculated from the photographs using the following relationship: […]

[2] = test system: white New Zealand rabbits; experiment: Miotic response (pupil diameter) after ocular dosing of pilocarpine hydrochloride, randomised cross-over study; assay type: in vivo; conditions: rabbit; for AUC (0-4 hours), area under the pupillary diameter vs. time curve / RR max: ± SD
Method: Ten white New Zealand rabbits were treated with the following dosage regimen in a randomised cross-over study:
30 μl of 1% aqueous pilocarpine hydrochloride solution (300 μg) was instilled via pipette into the conjunctival sac 5 μl of 1% aqueous pilocarpine hydrochloride solution (50 μg) was applied as a jet and/or stream of droplets (with a diameter in the range of 200 μm to 400 μm) to the surface of the cornea.
In order to determine pupil diameters, a metallic rule with a circular aperture of known diameter was orientated perpendicular to, and at an appropriate fixed distance from, a video camera fitted with a macro lens (Sony V8 Pro-CDD-V100E) throughout the study. During miotic measurements, the animals were positioned such that the left eye was parallel to the ruler and equidistant from the video camera. The video camera was actuated to project and amplify images of both the reference aperture and left eye onto the monitor screen. The diameters of both the reference aperture and pupil were then measured on the screen using a ruler placed on the projected image at an angle of approximately […]. The value of the pupil diameter was then calculated by multiplying the projected screen pupil diameter by the ratio of the actual reference diameter (8 mm) to the projected screen reference diameter (18 mm).
Pupil measurements were taken at approximately 60, 45, 30 and 15 minute intervals prior to administration of the treatments to provide a baseline value, and then at 15 minute intervals for the first hour after dosing. Thereafter, the pupil diameter was measured at 30 minute intervals for a minimum duration of 4 hours after dose administration.
For the purpose of statistical analysis of variants between treatments, the following parameters were determined: RR max=(pupil diameter at time t−pupil diameter at time 0)/pupil diameter at time 0; T max=the first time point at which the smallest pupillary diameter was observed; and AUC (0-4 hours)=the area under the pupillary diameter vs. time curve between 0 and 4 hours after treatment.
All significance tests were two-tailed and were performed at the 5% significance level. The statistical software SAS V607 and the PROC GLM procedure were used in the analysis.

[3] = Ocular distribution study of tritiated propranolol hydrochloride; assay type: in vivo, rabbit
Method: 40 μl of 0.5% aqueous tritiated propranolol hydrochloride solution (200 μg) was administered via pipette into the conjunctival sac of twelve New Zealand white rabbit eyes. Seperately, 5 μl of 4% aqueous tritiated propranolol hydrochloride solution (200 μg) was applied as a jet or stream of droplets (with a diameter in the range of 200 μm to 400 μm) to the surface (cornea and/or conjunctiva) of twelve different New Zealand white rabbit eyes
Following each treatment, four eyes were ennucleated after 15 minutes, four after 30 minutes and the remaining four after 60 minutes. In each case, the animals were humanely killed prior to the ocular ennucleation procedure via an overdose of sodium pentobarbitol injected into a marginal ear vein. Each eye was then irrigated by instilling 100 μl of normal saline into the conjunctival sac using an automatic pipette and immediately blotting away excess saline with paper tissue to remove any radioactivity in the tear film. Following ennucleation and removal of the adnexal tissue, the cornea was washed with a second 100 μl of normal saline. The aqueous humor was then quickly removed by paracentesis with a 1 ml syringe and 26G needle. To this was then added an equal volume of trichloroacetic acid (TCA) solution (10% w/v) to bring the final concentration to 5% w/v TCA. Both eyes were then dissected from the posterior pole to allow removal of the vitreous humor and the lens, whilst the iris-cilary body was transferred to a tared sample tube. The cornea was then removed using a 12 mm trephine, and the limbal cornea and conjunctiva (with underlying sclera) cut free into a strip approximately 5 mm wide using a scalpel and scissors. Each sample was then weighed in a tared sample tube and at least 5 volumes of TCA (6% w/v) added. All tissue samples were subjected to sonication for 5 minutes, then centrifuged at 10 000 g.min. to yield a supernatent. Each supernatent was then extracted 3 times with 3 volumes of ether and, after evaporation of residual solvent, the aqueous residue was sampled and added to 5 ml of FluoronSafe XE “Scintron” scintillation fluid (BDH Chemicals, UK). Radioactivity was then determined by counting in a Packard 1600DR beta-scintillation counter. Data gathered as counts per minute was then converted into disintegrations per minute (dpm), using external standardisation, and expressed as dpm […] after adjusting for the total radioactivity in each dose. Due to the small number of samples per time point per treatment, statistical analysis was not considered appropriate for this study.
The results of this study are summarised for the different ocular tissues in tables 1 to 4 below, where the values shown represent dpm (disintegrations per minute) per mg of tissue.

[4] = cited from earlier work
[5] = 1% 5 μl jet and/or stream of droplets (50 μg) to cornea
[6] = 1% 30 μl large eyedrop (300 μg) instilled into conjunctival sac
[7] = 0.5% 40 μl large eyedrop (200 μg), 15 mins
[8] = 0.5% 40 μl large eyedrop (200 μg), 30 mins
[9] = 0.5% 40 μl large eyedrop (200 μg), 60 mins
[10] = 4.0% 5 μl jet and/or stream of droplets (200 μg), 15 mins
[11] = 4.0% 5 μl jet and/or stream of droplets (200 μg), 30 mins
[12] = 4.0% 5 μl jet and/or stream of droplets (200 μg), 60 mins
[13] = 5 μl eye drop loaded with 26.1 μg

## CN[C@@H](C)[C@H](O)c1ccccc1 [Ephedrine, ephedrine hydrochloride]
[1]
  Mydriatic response (RRmax vs time, FIG. 1): more pronounced and maintained over a longer duration compared to both instillates

## CC[C@@H]1C(=O)OC[C@@H]1Cc1cncn1C [Pilocarpine, pilocarpine hydrochloride]
[2]; [5]
  AUC (0-4 hours), area under the pupillary diameter vs. time curve: 3827 ± 312 mmMin.
  RR max: 12.3 ± 5.2 %
[2]; [6]
  AUC (0-4 hours), area under the pupillary diameter vs. time curve: 3871 ± 340 mmMin.
  RR max: 15.2 ± 4.0 %
[2]; both dose forms (30 μl eyedrop 300 μg; 5 μl jet 50 μg), after 15 minutes
  Pupil diameter after administration: reduction in pupil diameter was evident
[2]; both dose forms
  Time after treatment at which the miotic effect started to disappear: 60 to 90 min
  Time after which pupil measurements had fully recovered to predose levels: 120 min

## CC(C)NCC(O)COc1cccc2ccccc12 (centres unmarked) [Propranolol, propranolol hydrochloride]
[3]; [7]
  Radioactivity in aqueous humor: 1310 dpm per mg of tissue
  Radioactivity in conjunctiva/sclera: 2569 dpm per mg of tissue
  Radioactivity in cornea: 5579 dpm per mg of tissue
  Radioactivity in iris-cilary body: 942 dpm per mg of tissue
[3]; [8]
  Radioactivity in aqueous humor: 960 dpm per mg of tissue
  Radioactivity in conjunctiva/sclera: 2838 dpm per mg of tissue
  Radioactivity in cornea: 3467 dpm per mg of tissue
  Radioactivity in iris-cilary body: 1033 dpm per mg of tissue
[3]; [9]
  Radioactivity in aqueous humor: 705 dpm per mg of tissue
  Radioactivity in conjunctiva/sclera: 1380 dpm per mg of tissue
  Radioactivity in cornea: 2945 dpm per mg of tissue
  Radioactivity in iris-cilary body: 799 dpm per mg of tissue
[3]; [10]
  Radioactivity in aqueous humor: 1845 dpm per mg of tissue
  Radioactivity in conjunctiva/sclera: 5286 dpm per mg of tissue
  Radioactivity in cornea: 5241 dpm per mg of tissue
  Radioactivity in iris-cilary body: 2256 dpm per mg of tissue
[3]; [11]
  Radioactivity in aqueous humor: 1176 dpm per mg of tissue
  Radioactivity in conjunctiva/sclera: 2259 dpm per mg of tissue
  Radioactivity in cornea: 3766 dpm per mg of tissue
  Radioactivity in iris-cilary body: 1482 dpm per mg of tissue
[3]; [12]
  Radioactivity in aqueous humor: 607 dpm per mg of tissue
  Radioactivity in conjunctiva/sclera: 1673 dpm per mg of tissue
  Radioactivity in cornea: 1861 dpm per mg of tissue
  Radioactivity in iris-cilary body: 586 dpm per mg of tissue
[3]; 15 minute time point, 200 μg each
  Level reaching the iris-ciliary body from jet and/or stream of droplets relative to eyedrop: more than double
[3]; all ocular tissues, all time points, both treatments
  Radioactivity in ocular tissues: Significant radioactivity was detected

## CC[C@@H]1C(=O)OC[C@@H]1Cc1cncn1C [pilocarpine nitrate]
[4]; [13]
  Drug available for potential systemic absorption: 25.7 µg
  Fraction of drug absorbed into the eye: 0.41 µg
[4]; 25 μl drop loaded with 67.8 μg
  Drug left to be absorbed systemically: 67.4 µg
  Drug penetrated the eye: 0.36 µg
